Activity calls are given as the source filed them. No cut-off for these calls is given here.

Test [1] has as its system HeLa. Description: Inhibition of proteinase K in human HeLa cells assessed as beta-actin RNA level at 0.10 mM by RT-PCR analysis. Type of test: cell-based.
Test [2] in a line: Inhibition of proteinase K at 0.10 mM by RT-PCR analysis in presence of BSA.
Test [3] can be described thus: Inhibition of proteinase K at 0.05 mM pretreated for 1 hr by RT-PCR analysis.
Test [4] in a line: Inhibition of proteinase K at 0.75 mM pretreated for 1 hr by RT-PCR analysis.
A short description of test [5]: Inhibition of proteinase K at 0.25 mM by RT-PCR analysis in presence of BSA.
The subject of test [6] is HeLa. The experiment in a line: Inhibition of proteinase K in human HeLa cells assessed as beta-actin RNA level at 0.5 mM by RT-PCR analysis. It is filed as cell-based.
The nature of test [7]: Inhibition of proteinase K at 0.5 mM pretreated for 1 hr by RT-PCR analysis.
The nature of test [8]: Inhibition of proteinase K at 0.25 to 1 mM pretreated for 1 hr by RT-PCR analysis.

For the molecule `COC(=O)CCC(=O)N[C@@H](C)C(=O)N[C@H](C)C(=O)N[C@@H](C)C(=O)N1CCC[C@H]1C(=O)N[C@@H](CC(C)C)C(=O)CCl`, the inhibition entry (in the test on HeLa [1]; in test [2]; in test [3]) was “Active” each time.
As to `COC(=O)CCC(=O)N[C@@H](C)C(=O)N[C@H](C)C(=O)N[C@@H](C)C(=O)N1CCC[C@H]1C(=O)N[C@H](C(=O)CCl)C(C)C`, the inhibition result (in test [4]; in test [5]; with HeLa [6]; in test [8]) was “Active” in each case. In addition, the inhibition result in test [7] is “inactive”.
